Laboratory results: ChEMBL document CHEMBL1201862, “PubChem BioAssay data set” (2004)
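Five compound concentrations were applied to cells in 96-well plates for 48 hours; endpoints were derived by simple linear interpolation of the resulting dose-response curve. GI50 is the concentration that inhibits growth by half.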 Active and inactive are the calls of the source. Cut-off read from the data, not from the text of the source: active = GI50 up to about 1.1 µM and inactive = higher.

Tests used:
Experiment in all cases: inhibition of tumour cell growth, NCI panel, 48 h
CAKI-1 = test system: CAKI-1
COLO 205 = test system: COLO 205
HCT-116 = test system: HCT-116
HCT-15 = test system: HCT-15
HOP-62 = test system: HOP-62
HT-29 = test system: HT-29
KM12 = test system: KM12
MDA-MB-435 = test system: MDA-MB-435
MDA-N = test system: MDA-N
NCI-H23 = test system: NCI-H23
NCI-H522 = test system: NCI-H522
NCI/ADR-RES = test system: NCI/ADR-RES
OVCAR-5 = test system: OVCAR-5
PC-3 = test system: PC-3
RPMI-8226 = test system: RPMI-8226
SF-295 = test system: SF-295
SF-539 = test system: SF-539
SK-OV-3 = test system: SK-OV-3
SNB-19 = test system: SNB-19
UO-31 = test system: UO-31

Row | SMILES | GI50 (CAKI-1) | GI50 (COLO 205) | GI50 (HCT-116) | GI50 (HCT-15) [µM] | GI50 (HOP-62) | GI50 (HT-29) | GI50 (KM12) | GI50 (MDA-MB-435) | GI50 (MDA-N) | GI50 (NCI-H23) | GI50 (NCI-H522) | GI50 (NCI/ADR-RES) | GI50 (OVCAR-5) | GI50 (PC-3) | GI50 (RPMI-8226) | GI50 (SF-295) | GI50 (SF-539) | GI50 (SK-OV-3) | GI50 (SNB-19) | GI50 (UO-31)
1 | CN(C)c1nc2n(CCO)c(-c3ccccc3)c(-c3ccccc3)nc-2c(=O)n1 | > 100 µM (inactive) | > 100 µM (inactive) | > 100 µM (inactive) | > 100 | > 100 µM (inactive) | > 100 µM (inactive) | > 100 µM (inactive) | > 100 µM (inactive) | > 100 µM (inactive) | > 100 µM (inactive) | > 100 µM (inactive) | > 100 µM (inactive) | > 100 µM (inactive) | > 100 µM (inactive) | > 100 µM (inactive) | > 100 µM (inactive) | > 100 µM (inactive) | > 100 µM (inactive) | > 100 µM (inactive) | > 100 µM (inactive)
2 | O=C(NCCOC(=O)OCCNC(=O)NC1CCCCC1)NC1CCCCC1 | > 100 µM (inactive) | > 100 µM (inactive) | > 100 µM (inactive) | > 100 | 35.6 µM (inactive) | > 100 µM (inactive) | > 100 µM (inactive) | > 100 µM (inactive) | > 100 µM (inactive) | 80.2 µM (inactive) | > 100 µM (inactive) | > 100 µM (inactive) | > 100 µM (inactive) | > 100 µM (inactive) | > 100 µM (inactive) | > 100 µM (inactive) | 44.3 µM (inactive) | 92.5 µM (inactive) | > 100 µM (inactive) | 71.3 µM (inactive)
3 | CCCCCCCCCCCCOP(=O)(O)OP(=O)(O)OCC1OC(n2cc(C)c(=O)[nH]c2=O)CC1O (stereo not given) | > 100 µM (inactive) | > 100 µM (inactive) | > 100 µM (inactive) | > 100 | > 100 µM (inactive) | > 100 µM (inactive) | > 100 µM (inactive) | > 100 µM (inactive) | > 100 µM (inactive) | > 100 µM (inactive) | > 100 µM (inactive) | > 100 µM (inactive) | > 100 µM (inactive) | > 100 µM (inactive) | > 100 µM (inactive) | > 100 µM (inactive) | > 100 µM (inactive) | > 100 µM (inactive) | > 100 µM (inactive) | > 100 µM (inactive)
4 | Nc1nc(N)c2nn(-c3ccc(C(=O)O)cc3)nc2n1 | > 100 µM (inactive) | > 100 µM (inactive) | > 100 µM (inactive) | > 100 | > 100 µM (inactive) | > 100 µM (inactive) | > 100 µM (inactive) | > 100 µM (inactive) | > 100 µM (inactive) | > 100 µM (inactive) | > 100 µM (inactive) | > 100 µM (inactive) | > 100 µM (inactive) | > 100 µM (inactive) | > 100 µM (inactive) | > 100 µM (inactive) | > 100 µM (inactive) | > 100 µM (inactive) | > 100 µM (inactive) | > 100 µM (inactive)
5 | COc1cc(OC)c(-c2ccc(OCc3ccccc3)c3c(OC)cc(C)cc23)c2c1C(C)=N[C@H](C)C2 | > 12.5 µM (inactive) | 2.28 µM (inactive) | 2.23 µM (inactive) | 2.14 | 2.26 µM (inactive) | 1.97 µM (inactive) | 2.09 µM (inactive) | 2.3 µM (inactive) | 2.15 µM (inactive) | 2.36 µM (inactive) | 1.82 µM (inactive) | 2.12 µM (inactive) | 2.52 µM (inactive) | 2.1 µM (inactive) | 1.44 µM (inactive) | 2.01 µM (inactive) | 2.38 µM (inactive) | 2.19 µM (inactive) | 2.68 µM (inactive) | 1.14 µM (inactive)
6 | O=C(NC(=O)c1ccccc1[N+](=O)[O-])Nc1ccc(Oc2ncc(Cl)cn2)c(C(F)(F)F)c1 | < 0.01 µM (active) | 0.0184 µM (active) | 0.0124 µM (active) | < 0.0126 | 0.0181 µM (active) | 0.0105 µM (active) | < 0.01 µM (active) | < 0.01 µM (active) | < 0.01 µM (active) | 0.0257 µM (active) | < 0.01 µM (active) | < 0.01 µM (active) | 0.0119 µM (active) | < 0.01 µM (active) | 0.0208 µM (active) | < 0.01 µM (active) | 0.0109 µM (active) | < 0.01 µM (active) | 0.0218 µM (active) | 0.0281 µM (active)
7 | CCn1c(=N)sc2nc3ccccc3n2c1=O | > 100 µM (inactive) | > 100 µM (inactive) | > 100 µM (inactive) | > 100 | > 100 µM (inactive) | > 100 µM (inactive) | > 100 µM (inactive) | > 100 µM (inactive) | > 100 µM (inactive) | > 100 µM (inactive) | > 100 µM (inactive) | > 100 µM (inactive) | > 100 µM (inactive) | > 100 µM (inactive) | > 100 µM (inactive) | > 100 µM (inactive) | > 100 µM (inactive) | > 100 µM (inactive) | > 100 µM (inactive) | 14.9 µM (inactive)
8 | O=[N+]([O-])c1cccc2nc3ccccc3c(NCCCCNc3c4ccccc4nc4cccc([N+](=O)[O-])c34)c12 | 0.0261 µM (active) | 0.0199 µM (active) | 0.0143 µM (active) | 0.0204 | 0.042 µM (active) | < 0.01 µM (active) | 0.0401 µM (active) | 0.0489 µM (active) | 0.0536 µM (active) | 0.0225 µM (active) | 0.0214 µM (active) | 0.248 µM (active) | 0.164 µM (active) | 0.0719 µM (active) | 0.0301 µM (active) | 0.0927 µM (active) | 0.0244 µM (active) | 0.293 µM (active) | 0.0302 µM (active) | 0.129 µM (active)
9 | COC1(CC[C@H](C)COC2OC(CO)C(O)C(O)C2O)O[C@H]2C[C@H]3[C@@H]4CC=C5C[C@@H](OC6OC(CO)C(O)C(OC7OC(CO)C(O)C(O)C7O)C6OC6OC(C)C(O)C(O)C6O)CC[C@]5(C)[C@H]4CC[C@]3(C)[C@H]2[C@@H]1C (stereo not given in full) | 5.45 µM (inactive) | 4.08 µM (inactive) | 4.5 µM (inactive) | 2.96 | 5.51 µM (inactive) | 4.57 µM (inactive) | 1.98 µM (inactive) | 1.87 µM (inactive) | 8.81 µM (inactive) | 6.52 µM (inactive) | 2.94 µM (inactive) | 9.44 µM (inactive) | 6.07 µM (inactive) | 4.3 µM (inactive) | 2.54 µM (inactive) | 3.3 µM (inactive) | 2.17 µM (inactive) | 12.1 µM (inactive) | 7.31 µM (inactive) | 2.14 µM (inactive)
10 | N=C(N)NC1C(O)C(O)C(O)C(NC(=N)N)C1O (stereo not given) | > 100 µM (inactive) | > 100 µM (inactive) | > 100 µM (inactive) | > 100 | > 100 µM (inactive) | > 100 µM (inactive) | > 100 µM (inactive) | > 100 µM (inactive) | > 100 µM (inactive) | > 100 µM (inactive) | > 100 µM (inactive) | > 100 µM (inactive) | > 100 µM (inactive) | > 100 µM (inactive) | > 100 µM (inactive) | > 100 µM (inactive) | > 100 µM (inactive) | > 100 µM (inactive) | > 100 µM (inactive) | > 100 µM (inactive)
11 | Cc1cc(=O)n2nc(CCl)sc2n1 | 10.3 µM (inactive) | 18.7 µM (inactive) | 12.4 µM (inactive) | 13.6 | 18.1 µM (inactive) | 14.8 µM (inactive) | 12.1 µM (inactive) | 12.7 µM (inactive) | 14 µM (inactive) | 23.2 µM (inactive) | 5.57 µM (inactive) | 20.7 µM (inactive) | 15 µM (inactive) | 13.3 µM (inactive) | 10.6 µM (inactive) | 19.3 µM (inactive) | 18.7 µM (inactive) | 15.5 µM (inactive) | 15.8 µM (inactive) | 14.3 µM (inactive)
12 | FC(F)(F)C1(C(F)(F)F)O[Si]2(OC(C(F)(F)F)(C(F)(F)F)c3ccccc32)c2ccccc21 | 19.1 µM (inactive) | 14.8 µM (inactive) | 5.45 µM (inactive) | 17 | 8.67 µM (inactive) | 7.62 µM (inactive) | 17.1 µM (inactive) | 11.3 µM (inactive) | 13.4 µM (inactive) | 10.6 µM (inactive) | 7.53 µM (inactive) | 6.58 µM (inactive) | 14.5 µM (inactive) | 6.27 µM (inactive) | 17.2 µM (inactive) | 5.2 µM (inactive) | 10.2 µM (inactive) | 15.8 µM (inactive) | 9.57 µM (inactive) | 9.12 µM (inactive)
13 | Cc1cccc(C)c1NC(=O)Nc1ccc(S(N)(=O)=O)cc1 | > 100 µM (inactive) | > 100 µM (inactive) | > 100 µM (inactive) | > 100 | > 100 µM (inactive) | > 100 µM (inactive) | > 100 µM (inactive) | > 100 µM (inactive) | > 100 µM (inactive) | > 100 µM (inactive) | > 100 µM (inactive) | > 100 µM (inactive) | > 100 µM (inactive) | > 100 µM (inactive) | > 100 µM (inactive) | > 100 µM (inactive) | > 100 µM (inactive) | > 100 µM (inactive) | > 100 µM (inactive) | > 100 µM (inactive)
14 | C/C(=N\OCC(O)CNCCSCc1ccccc1)c1ccccc1Cl (stereo not given) | 17.7 µM (inactive) | 19.2 µM (inactive) | 21.6 µM (inactive) | 18.2 | 19.4 µM (inactive) | 20.6 µM (inactive) | 18.6 µM (inactive) | 17.4 µM (inactive) | 19.6 µM (inactive) | 37.5 µM (inactive) | 28.7 µM (inactive) | 19.1 µM (inactive) | 19.3 µM (inactive) | 18.5 µM (inactive) | 21.8 µM (inactive) | 18.6 µM (inactive) | 19.5 µM (inactive) | 19.2 µM (inactive) | 18.5 µM (inactive) | 15.7 µM (inactive)
